Like-named read-outs stand apart in the source and are kept apart here.
Assay: Pharmacokinetics and brain distribution after oral administration
Assay type: in vivo, C57BL/6 mice
Settings: male, C57BL/6, mouse, mice; for Kp: brain / plasma, po, 50 mg/kg
Experimental: To investigate the pharmacokinetics and brain distribution of DTMB, fifty-six male C57BL/6 mice (22–26 g) were fasted with water ad libitum for 16 h before oral administration of DTMB and randomly divided into seven groups (n=8 per each sampling time point). Mice were administered with a DTMB suspension in 1% carboxymethylcellulose at a dose of 50 mg/kg via oral gavage, and blood samples (approximately 0.1 mL) were collected at 0, 0.16, 0.5, 1, 4, 8, and 24 h via the abdominal artery. Subsequently, whole brain tissues were isolated, weighed, and homogenized with two volume of ice-cold 80% methanol solution using a tissue grinder. Blood samples were centrifuged at 12,000 g for 1 min to separate plasma. Aliquots of plasma (30 µL) and brain homogenate (50 µL) samples were stored at − 80 °C until analysis. Concentrations of DTMB in plasma and brain homogenate samples were analyzed using an Agilent 6470 triple quadrupole liquid chromatography-mass spectrometry (LC–MS/MS) system (Agilent, Wilmington, DE, USA). Aliquots of plasma (30 µL each) and brain homogenate (50 µL each) were added to 100 μL of internal standard solution (IS; berberin 0.1 ng/mL in methanol) and vigorously mixed for 5 min. After centrifugation at 16,000 g for 10 min, a 5 µL aliquot of the supernatant was injected into the LC–MS/MS system. DTMB was separated on a Synergi Polar RP column (2.0 × 150 mm, 4 μm particle size; Phenomenex, Torrence, CA, USA) using an isocratic mobile phase consisting of 10 mM ammonium formate buffer (10%) and methanol (90%) containing 0.1% formic acid at a flow rate of 0.25 mL/min. Quantification of the analyte peaks was carried out at m/z 513.2 → 283.0 for DTMB (TR (retention time) 4.7 min) and m/z 336.1 → 320.0 for berberine (TR 2.9 min) in a […] ionization mode with optimized fragmentor of 135 V and collision energy of 25 or 30 eV, respectively. The pharmacokinetic parameters of DTMB in the plasma and brain were determined by the non-compartmental analysis (WinNonlin® 5.1; Pharsight, Mountain View, CA, USA). Elimination half-life (T1/2) was calculated from the elimination coefficient (K) of DTMB concentrations. Cmax indicated the maximum plasma concentrations and Tmax indicated time to reach Cmax. AUClast and AUCinf were calculated from the area under plasma concentrations curve from zero to the last time point and to infinity, respectively.

With `COc1ccc(-c2cc(=O)oc3c(C)c(OC(=O)[C@H](Cc4c[nH]c5ccccc45)NC(=O)OC(C)(C)C)ccc23)cc1` [DTMB] the Kp (oral, plasma concentration range 0.63–66.9 ng/mL, read-out: mean brain DTMB concentration ratio over the plasma DTMB ([Brain]/[Plasma])) was 2.69, the Kp (printed in the Brain column, 50 mg/kg oral, read-out: AUC ratio) was 3.53 and the Tmax (Brain, 50 mg/kg oral) was 0.94 ± 0.18 h. It also gave a half-life (Brain, 50 mg/kg oral) of 4.41 ± 1.11 h, a Tmax (Plasma, 50 mg/kg oral) of 0.75 ± 0.27 h and a half-life (Plasma, 50 mg/kg oral) of 1.64 ± 0.27 h.

From paper PMC9606171, “Synthetic PPAR Agonist DTMB Alleviates Alzheimer’s Disease Pathology by Inhibition of Chronic Microglial Inflammation in 5xFAD Mice” (Neurotherapeutics, 2022)
